Test results taken from ChEMBL document CHEMBL1147544, “N-alkyl-4-[(8-azabicyclo[3.2.1]-oct-3-ylidene)phenylmethyl]benzamides, micro and delta opioid agonists: a micro address” (Bioorg Med Chem Lett, 2004).

Assays:
Mu-type opioid receptor [1] = molecular target: T1, Mu-type opioid receptor (Homo sapiens, UniProt P35372); assay: In vitro binding affinity towards opioid receptor mu 1; design: species or system unidentified
[2] = molecular target: Delta-type opioid receptor (Homo sapiens, UniProt P41143); assay: In vitro binding affinity towards opioid receptor delta 1
Mus musculus = assay: Antinociceptive activity by mouse hotplate test (55 degree C, po ); type: functional
Mu-type opioid receptor [3] = molecular target: T1, Mu-type opioid receptor; assay: Percentage stimulation of [35S]GTP-gamma-S, binding at the opioid receptor mu 1 at 10 uM; type: functional

Delta-type opioid receptor, sequence (P41143 whole entry): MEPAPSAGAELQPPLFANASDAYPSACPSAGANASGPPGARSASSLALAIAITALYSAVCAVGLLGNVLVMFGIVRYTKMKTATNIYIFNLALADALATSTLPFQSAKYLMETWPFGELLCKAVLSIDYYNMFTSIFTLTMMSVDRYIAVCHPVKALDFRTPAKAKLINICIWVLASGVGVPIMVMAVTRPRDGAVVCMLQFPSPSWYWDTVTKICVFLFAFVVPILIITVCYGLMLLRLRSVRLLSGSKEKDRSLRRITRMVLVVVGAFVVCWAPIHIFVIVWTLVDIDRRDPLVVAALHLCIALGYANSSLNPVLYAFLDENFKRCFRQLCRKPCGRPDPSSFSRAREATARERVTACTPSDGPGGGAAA
T1 sequence (P35372 whole entry): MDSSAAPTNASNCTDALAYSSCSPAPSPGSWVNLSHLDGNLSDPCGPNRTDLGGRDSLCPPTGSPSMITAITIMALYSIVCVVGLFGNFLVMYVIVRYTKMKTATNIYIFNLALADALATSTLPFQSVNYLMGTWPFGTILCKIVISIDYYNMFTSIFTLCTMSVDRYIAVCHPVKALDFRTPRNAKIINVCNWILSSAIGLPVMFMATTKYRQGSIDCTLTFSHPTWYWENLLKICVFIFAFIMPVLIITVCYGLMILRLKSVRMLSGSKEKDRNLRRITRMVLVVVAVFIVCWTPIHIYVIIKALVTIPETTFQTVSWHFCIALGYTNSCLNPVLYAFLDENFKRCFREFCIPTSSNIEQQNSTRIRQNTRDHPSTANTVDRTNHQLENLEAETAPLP

SMILES | Ki (Mu-type opioid receptor [1]) | Ki [2] | ED50 (Mus musculus) | Stimulation (Mu-type opioid receptor [3])
CCNC(=O)c1ccc(C(=C2CC3CCC(C2)N3Cc2ccccc2Cl)c2cccc(O)c2)cc1 | 15 nM | 2.09 nM | – | –
CCN(CC)C(=O)c1ccc(/C(=C2\C[C@H]3CC[C@@H](C2)N3CCc2ccccc2)c2ccccc2)cc1 | – | – | 25 µmol/kg | –
CCNC(=O)c1ccc(C(=C2CC3CCC(C2)N3c2cccn2C)c2ccccc2)cc1 | 59 nM | 20.8 nM | – | –
CCNC(=O)c1ccc(C(=C2CC3CCC(C2)N3CCc2ccccc2)c2ccc(OC)cc2)cc1 | 6.1 nM | 11.3 nM | – | –
CCNC(=O)c1ccc(C(=C2CC3CCC(C2)N3)c2ccc(O)cc2)cc1 | 265 nM | 4.5 nM | – | –
CCNC(=O)c1ccc(C(=C2CC3CCC(C2)N3)c2cccc(OC)c2)cc1 | 96 nM | 13.2 nM | – | –
CCNC(=O)c1ccc(/C(=C2/C[C@H]3CC[C@@H](C2)N3CCc2ccccc2)c2ccccc2)cc1 | 7.16 nM | 4.69 nM | – | –
CCNC(=O)c1ccc(/C(=C2\C[C@H]3CC[C@@H](C2)N3CCc2ccccc2)c2ccccc2)cc1 | 0.26 nM | 46.7 nM | 25 µmol/kg | 490%
C=CCN1[C@@H]2CC[C@H]1C/C(=C(/c1ccccc1)c1ccc(C(=O)NCC)cc1)C2 | 10.5 nM | 2.24 nM | – | –
CCNC(=O)c1ccc(C(=C2CC3CCC(C2)N3Cc2cccs2)c2cccc(O)c2)cc1 | 0.664 nM | 0.152 nM | – | –
CCNC(=O)c1ccc(C(=C2CC3CCC(C2)N3Cc2cccs2)c2ccc(OC)cc2)cc1 | 13.5 nM | 1.32 nM | – | –
C=CCN1C2CCC1CC(=C(c1ccc(C(=O)NCC)cc1)c1cccc(OC)c1)C2 | 13.8 nM | 1.45 nM | – | –
CCNC(=O)c1ccc(/C(=C2/C[C@H]3CC[C@@H](C2)N3C)c2ccccc2)cc1 | 42.5 nM | 6.39 nM | – | –
CCNC(=O)c1ccc(C(=C2CC3CCC(C2)N3CC=C(C)C)c2cccc(OC)c2)cc1 | 2.04 nM | 0.72 nM | – | –
CCNC(=O)c1ccc(C(=C2CC3CCC(C2)N3Cc2ccccn2)c2ccccc2)cc1 | 17 nM | 0.86 nM | – | –
CCNC(=O)c1ccc(/C(=C2\C[C@H]3CC[C@@H](C2)N3C)c2ccccc2)cc1 | 304 nM | 292 nM | – | –
CCNC(=O)c1ccc(C(=C2CC3CCC(C2)N3CCCc2ccccc2)c2ccccc2)cc1 | 4.8 nM | 12.3 nM | – | –
NC(=O)c1ccc(C(=C2CC3CCC(C2)N3CCc2ccccc2)c2ccccc2)cc1 | 39.6 nM | 35.9 nM | – | –
O=C(NC1CC1)c1ccc(C(=C2CC3CCC(C2)N3CCc2ccccc2)c2ccccc2)cc1 | 1.01 nM | 20 nM | – | –
CCNC(=O)c1ccc(C(=C2CC3CCC(C2)N3Cc2cccs2)c2ccc(O)cc2)cc1 | 6.77 nM | 0.25 nM | – | –
CCCNC(=O)c1ccc(C(=C2CC3CCC(C2)N3CCc2ccccc2)c2ccccc2)cc1 | 1.6 nM | 22 nM | – | –
CCCCNC(=O)c1ccc(C(=C2CC3CCC(C2)N3CCc2ccccc2)c2ccccc2)cc1 | 21.7 nM | 49.3 nM | – | –
CCNC(=O)c1ccc(C(=C2CC3CCC(C2)N3CCO)c2ccccc2)cc1 | 76 nM | 26.2 nM | – | –

SMILES | Ki (Mu-type opioid receptor [1]) | Ki [2] | ED50 (Mus musculus) | Stimulation (Mu-type opioid receptor [3])
CCNC(=O)c1ccc(C(=C2CC3CCC(C2)N3CCc2ccccc2)c2cccc(O)c2)cc1 | 0.222 nM | – | – | –
CNC(=O)c1ccc(C(=C2CC3CCC(C2)N3CCc2ccccc2)c2ccccc2)cc1 | 0.14 nM | 13 nM | – | –
CCNC(=O)c1ccc(C(=C2CC3CCC(C2)N3Cc2ccccc2Cl)c2ccc(O)cc2)cc1 | 8.72 nM | 0.93 nM | – | –
CCNC(=O)c1ccc(C(=C2CC3CCC(C2)N3CCc2ccccc2)c2cccc(OC)c2)cc1 | 0.654 nM | 19.8 nM | – | –
CCNC(=O)c1ccc(C(=C2CC3CCC(C2)N3Cc2cccs2)c2cccc(OC)c2)cc1 | 3.79 nM | 0.51 nM | – | –
O=C(Nc1nccs1)c1ccc(C(=C2CC3CCC(C2)N3CCc2ccccc2)c2ccccc2)cc1 | 53 nM | 49.5 nM | – | –
CC(C)(C)NC(=O)c1ccc(C(=C2CC3CCC(C2)N3CCc2ccccc2)c2ccccc2)cc1 | 608 nM | 352 nM | – | –
COCCNC(=O)c1ccc(C(=C2CC3CCC(C2)N3CCc2ccccc2)c2ccccc2)cc1 | 163 nM | 103 nM | – | –
CCNC(=O)c1ccc(/C(=C2/C[C@H]3CC[C@@H](C2)N3)c2ccccc2)cc1 | 74.7 nM | 5.48 nM | – | –
CCNC(=O)c1ccc(C(=C2CC3CCC(C2)N3Cc2ccccc2Cl)c2ccc(OC)cc2)cc1 | 122 nM | 5.67 nM | – | –
CCNC(=O)c1ccc(C(=C2CC3CCC(C2)N3Cc2ccccc2Cl)c2cccc(OC)c2)cc1 | 57.7 nM | 6.66 nM | – | –
CCNC(=O)c1ccc(C(=C2CC3CCC(C2)N3Cc2c[nH]cn2)c2ccccc2)cc1 | 101 nM | 3.88 nM | – | –
CCNC(=O)c1ccc(C(=C2CC3CCC(C2)N3CCc2ccccc2)c2ccc(O)cc2)cc1 | 21.7 nM | 7.8 nM | – | –
C=CCN1C2CCC1CC(=C(c1ccc(C(=O)NCC)cc1)c1cccc(O)c1)C2 | 9.58 nM | 0.384 nM | – | –
CCNC(=O)c1ccc(C(=C2CC3CCC(C2)N3CCOc2ccccc2)c2ccccc2)cc1 | 93 nM | 63.4 nM | – | –
CCNC(=O)c1ccc(C(=C2CC3CCC(C2)N3CC=C(C)C)c2cccc(O)c2)cc1 | 2.52 nM | 2.02 nM | – | –
C=CCN1[C@@H]2CC[C@H]1C/C(=C(\c1ccccc1)c1ccc(C(=O)NCC)cc1)C2 | 19.1 nM | 7.72 nM | – | –
O=C(Nc1ccccc1)c1ccc(C(=C2CC3CCC(C2)N3CCc2ccccc2)c2ccccc2)cc1 | 4240 nM | 1520 nM | – | –
O=C(NCCF)c1ccc(C(=C2CC3CCC(C2)N3CCc2ccccc2)c2ccccc2)cc1 | 2.99 nM | 32 nM | – | –
CCNC(=O)c1ccc(C(=C2CC3CCC(C2)N3CCc2c[nH]c3ccccc23)c2ccccc2)cc1 | 84 nM | 23.7 nM | – | –
O=C(NC1CCCCC1)c1ccc(C(=C2CC3CCC(C2)N3CCc2ccccc2)c2ccccc2)cc1 | 717 nM | 924 nM | – | –
CCNC(=O)c1ccc(C(=C2CC3CCC(C2)N3Cc2[nH]cnc2C)c2ccccc2)cc1 | 61 nM | 15.9 nM | – | –
